Data on eleven compounds can be found in patent publication US5187165A, “Memory enhancing and analgesic 1,2,3a,8,8a-hexahydro-3a,8(and 1,3a,8)-di(and tri)methylpyrrolo[2,3-b]indoles” (priority 1988, dated 1993).

Experiment [1] relates to 2-phenyl-1,4-benzoquinone-induced writhing. As to the kind of experiment: 2-phenyl-1,4-benzoquinone-induced writhing (PQW) test. In kind it is in vivo. To be noted: mice; for ED50: Mus musculus, read-out: ANALGESIC ACTIVITY (ED50), PQW. An excerpt: Compounds I of the present invention are also useful as analgesic agents due to their ability to alleviate pain in mammals. […] Exptl. Biol. Med., 95,729 (1957)] and in modified Haffner's analgesia.
In general terms: Writhing tests count abdominal constrictions after an irritant is injected.

Experiment [2] relates to pressure stress by artery clip on tail. As to the kind of experiment: Modified Haffner's Analgesia. In kind it is in vivo, mice. To be noted: sc; for ANALGESIC ACTIVITY (ED50), Modified Haffner's Analgesia: mice, peak time of drug activity; for ED50: Mus musculus, read-out: ANALGESIC ACTIVITY (ED50), Modified Haffner's Analgesia, mice, sc, peak time of drug activity. An excerpt: The latter assay is used to evaluate analgesic activity by measuring drug-induced changes in the sensitivity of mice to pressure stress by placing an artery clip (21/2 inches long) on their tail. The procedure used is a modification of the test developed by Haffner, Dtsch. Med. Wschr., 55, 731 (1929), and it is described below.
Male mice (Charles River, CD-1) from 18-30 grams are used for the test. An artery clip is applied to the root of the tail of a mouse (approximately 1/2 inch from the body) to induce pain. The animal quickly responds to this noxious stimuli by biting the clip or the location of the clip. This reaction time, the interval between stimulus onset and response, is recorded in 1/10-second increments by a stop watch.
For a time response, the screening dose (25 mg/kg) is administered subcutaneously (10 ml/kg) to the animal receiving food and water ad libitum before testing. Animals receiving the compound orally are fasted 18-24 hours before drug administration. Drug to be tested is prepared with distilled water and if insoluble, one drop of a surfactant is added.
Twenty-eight animals (seven/group) are administered the drug 15, 30, 45 and 60 minutes prior to testing.
The cut-off time (CO) is determined by taking the (x) average +(3) standard (SD) deviations of the combined response latencies of the control mice in all time periods.
Any reaction time, in subsequent drug tests, which is greater than the CO (for the same time period) therefore exceeds 99% of a normal Gaussian distribution and is called "positive response" indicative of analgesic activity. A time response indicates the period of greatest analgesic effect after dosing. The ED50 is determined at the peak time of drug activity. A minimum of three dose groups are used. ED50 's are calculated using computer analysis.

In experiment [3] the target is T1, acetylcholinesterase (Brain AChE) (Rattus norvegicus, UniProt P37136).
T1 construct: corpora striata dissected free, weighed and homogenized in 19 volumes; from tissue; host or cells: corpora striata of male Wistar rats, crude homogenate in phosphate buffer
T1 sequence (P37136 32-614): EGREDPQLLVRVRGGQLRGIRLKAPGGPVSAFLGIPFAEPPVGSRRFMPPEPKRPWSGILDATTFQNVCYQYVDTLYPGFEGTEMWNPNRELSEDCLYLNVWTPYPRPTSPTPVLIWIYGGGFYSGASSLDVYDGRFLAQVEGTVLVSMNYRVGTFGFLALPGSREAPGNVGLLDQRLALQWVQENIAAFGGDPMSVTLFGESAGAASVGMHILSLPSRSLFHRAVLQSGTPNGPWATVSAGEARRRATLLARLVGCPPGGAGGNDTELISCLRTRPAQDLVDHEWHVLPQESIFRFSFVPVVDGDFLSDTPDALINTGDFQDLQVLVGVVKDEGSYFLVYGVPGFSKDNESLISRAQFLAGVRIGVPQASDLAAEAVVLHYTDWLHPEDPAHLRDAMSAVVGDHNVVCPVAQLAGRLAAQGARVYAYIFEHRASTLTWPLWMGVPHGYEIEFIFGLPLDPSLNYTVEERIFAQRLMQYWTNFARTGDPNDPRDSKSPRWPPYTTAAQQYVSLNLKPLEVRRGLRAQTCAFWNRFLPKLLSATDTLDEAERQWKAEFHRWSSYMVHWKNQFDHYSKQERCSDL
The experiment is described as follows: In Vitro Inhibition of Acetylcholinesterase Activity in Rat Striatum. Format: biochemical. An excerpt:
Cholinesterases are found throughout the body, both in the brain and in serum. However, only brain acetylcholinesterase (AChE) distribution is correlated with central cholinergic innervation. […] We have determined in vitro inhibition of acetylcholinesterase activity in rat striatum and in vitro inhibition of butrylcholinesterase activity in human serum according to the methods described below.
The method described below was used in this invention for assaying cholinesterase activity. This is a modification of the method of Ellman et al., Biochem. Pharmacol. 7, 98 (1961).
1. 0.05M Phosphate buffer, pH 7.2
(a) 9.9 mg 5,5-dithiobisnitrobenzoic acid (DTNB) (0.25 mM)
(b) 99 mg s-acetylthiocholine chloride (5 mM)
(c) q.s. to 100 ml with 0.05M phosphate buffer, pH 7.2 (reagent 1)
Male Wistar rats are decapitated, brains rapidly removed, corpora striata dissected free, weighed and homogenized in 19 volumes (approximately 7 mg protein/ml) of 0.05M phosphate buffer, pH 7.2 using a Potter-Elvehjem homogenizer. A 50 microliter aliquot of the homogenate is added to 50 microliter vehicle of various concentrations of the test drug and preincubated for 10 minutes at room temperature.
1. For routine IC50 determinations the Abbott Bichromatic Analyzer, ABA-100, is used to determine acetylcholinesterase activity.
Incubation temperature: 30° C.
Following the 10 minute preincubation of the tissue (enzyme) with the inhibitor, the samples are mixed with the substrate chromogen buffer by the ABA-100. Using the indicated instrument settings the ABA-100 automatically reads the color reaction and prints out the results in enzyme units after 15 minutes.
2. The enzyme activity can also be measured with Gilford 250 spectrophotometer. This method is used for more accurate kinetic measurments.
Reagents are added to the reference and sample side of a split curvette as follows.
The uninhibited activity of the enzyme (tissue homogenate) is first determined. Test drugs are made up in a suitable solvent and added in suitable dilutions to the buffer vehicle. The reaction rate is determined by the slope of the recorded absorbance change. The actual rate (moles/liter/min) can be calculated as described in the following formula
rate(moles/liter/min)=slope/(1.36×10^4).

Experiment [4] has as its system scopolamine-induced memory deficit. As to the kind of experiment: Dark Avoidance Assay (scopolamine induced memory deficit reversal). In kind it is in vivo, mice. To be noted: Mus musculus, sc, 24 h, read-out: % of Animals with Scopolamine Induced Memory Deficit Reversal. As to the method: In this assay mice are tested for their ability to remember an unpleasant stimulus for a period of 24 hours. A mouse is placed in a chamber that contains a dark compartment; a strong incandescent light drives it to the dark compartment, where an electric shock is administered through metal plates on the floor. The animal is removed from the testing apparatus and tested again, 24 hours later, for the ability to remember the electric shock.
If scopolamine, an anticholinergic that is known to cause memory impairment, is administered before an animal's initial exposure to the test chamber, the animal re-enters the dark compartment shortly after being placed in the test chamber 24 hours later. This effect of scopolamine is blocked by an active test compound, resulting in a greater interval before re-entry into the dark compartment.
The results for an active compound are expressed as the percent of a group of animals in which the effect of scopolamine is blocked, as manifested by an increased interval between being placed in the test chamber and re-entering the dark compartment.

Counter-ions that a name gives are not always drawn. Like-named read-outs stand apart in the source and are kept apart here.

For the compound `CN1CC[C@@]2(C)c3cc(O)cc(Br)c3N(C)[C@@H]12` (relative stereo) [7-bromo-1,2,3,3a,8,8a-hexahydro-1,3a,8-trimethylpyrrolo[2,3-] [7-Bromo-1,2,3,3a,8,8a-hexahydro-1,3a,8-trimethylpyrrolo[2,3-b]indol-5-ol], the “ANALGESIC ACTIVITY (ED50), PQW” value came out at 0.33 mg/kg in experiment [1] (po) and 0.17 mg/kg in experiment [1] (sc). Moreover, in experiment [2], the “ANALGESIC ACTIVITY (ED50), Modified Haffner's Analgesia” value amounted to 0.22 mg/kg.
Take `Cc1cc(O)cc2c1N(C)[C@H]1N(C)CC[C@@]21C` (relative stereo) [(3aS-cis)-1,2,3,3a,8,8a-Hexahydro-1,3a,7,8-tetramethylpyrrolo[2,3-b]indol-5-ol]: the ED50 (in general, the midpoint of the dose-response relation) in experiment [1] (sc, sc) worked out at 0.22 mg/kg; in experiment [2] it was 0.31 mg/kg.
For `CN1CC[C@@]2(C)c3cc(OC(=O)C(C)(C)C)cc(Br)c3N(C)[C@@H]12.Cl` (relative stereo) [(3aS-cis)-7-Bromo-1,2,3,3a,8,8a-hexahydro-1,3a,8-trimethylpyrrolo[2,3-b]indol-5-ol, trimethylacetate hydrochloride], in that order: 0.8 mg/kg and 0.6 mg/kg.
Regarding `CN1CC[C@@]2(C)c3cc(O)cc(Br)c3N(C)[C@@H]12` (relative stereo) [(3aS-cis)-7-Bromo-1,2,3,3a, 8,8a-hexahydro-1,3a,8-trimethylpyrrolo[2,3-b]indol-5-ol], in experiment [1] (po, po), the median effective dose (ED50) came to 0.36 mg/kg.
In the case of `CN1CC[C@@]2(C)c3cc(O)cc(Br)c3N(C)[C@@H]12` (relative stereo) [(3aS-cis)-7-bromo-1,2,3,3a,8,8a-hexahydro-1,3a,8-trimethylpy] [(3aS-cis)-7-Bromo-1,2,3,3a, 8,8a-hexahydro-1,3a,8-trimethylpyrrolo[2,3-b]indol-5-ol], the “ANALGESIC ACTIVITY (ED50), PQW” value in experiment [1] (sc) was 0.041 mg/kg. The “ANALGESIC ACTIVITY (ED50), Modified Haffner's Analgesia” value in experiment [2] worked out at 0.55 mg/kg.
Regarding `C=CCN1CCC2(C)c3cc(O)ccc3N(C)C12` (centres unmarked) [1,2,3,3a,8,8a-Hexahydro-3a,8-dimethyl-1-(2-propenyl)-pyrrolo[2,3-b]indol-5-ol salicylate], the ED50 in experiment [1] (sc, sc) was 3.9 mg/kg; in experiment [2], 2.56 mg/kg.
For the compound `CCN1CCC2(C)c3cc(O)cc(Br)c3N(C)C12` (centres unmarked) [7-Bromo-1-ethyl-1,2,3,3a,8,8a-hexahydro-3a,8-dimethylpyrrolo[2,3-b]indol-5-ol salicylate], the ED50 in experiment [1] (sc, sc) is 2.52 mg/kg; in experiment [2], 1.94 mg/kg.
As for `CNC(=O)Oc1cc(C)c2c(c1)[C@]1(C)CCN(C)[C@@H]1N2C` [(3aS-cis)-1,2,3,3a,8,8a-Hexahydro-1,3a,7,8-tetramethylpyrrolo[2,3-b]indol-5-ol, methyl carbamate ester], half-maximal inhibition in experiment [3] (IC50) required 12 nM.
On to `CC(=O)Oc1cc([N+](=O)[O-])c2c(c1)[C@]1(C)CCN(C)[C@@H]1N2C` [(3aS-cis)-1,2,3,3a,8,8a-Hexahydro-1,3a,8-trimethyl-7-nitropyrrolo[2,3-b]indol-5-ol acetate fumarate], for which the ED50 amounted to 1.5 mg/kg in experiment [1] (sc, sc) and 3.6 mg/kg in experiment [2].
As for `CCN(CC)C(=O)Oc1cc2c(cc1Br)N(C)[C@H]1N(C)CC[C@@]21C` [(3aS-cis)-6-bromo-1,2,3,3a,8,8a-hexahydro-1,3a,8-trimethylpyrrolo[2,3-b]indol-5-ol, N,N-diethyl carbamate ester], in experiment [4], the responders at 5 mg/kg is 40%.
As for `CN1CC[C@@]2(C)c3cc(O)ccc3N(C)[C@@H]12` [eseroline salicylate, reference compound], the ED50 turned out to be 0.52 mg/kg in experiment [1] (sc, sc) and 0.18 mg/kg in experiment [2].
